Measurements as given in patent publication US20240239806A1, “COMPOUNDS, COMPOSITIONS AND METHODS OF TREATING DISORDERS” (Chengdu Anticancer Bioscience, Ltd., priority 2021, published 2024).
pEC50: −log10 of the molar value. “Also recorded” adds a separate entry of the source.

What was measured:
[1] = system: human lung cancer cell line NCI-H23; experiment: Colony formation assay of long-term effect; assay type: cell-based; conditions: exposed for three days, drug-free medium until 12 days; compared with AZD1152
Description: Acute cytotoxicity immediately determined after short-term exposure to antimitotic agents often underestimates their potency, because some cancer cells might not die quickly after suffering mitotic defects such as an arrest in mitosis or a cytokinetic failure. Instead, after exposed to antimitotic agents, cells might face multiple possibilities that adversely affect their viability and proliferation in long-term such as permanent arrest of proliferation due to the development of senescence and nonapoptotic cell death by excessive autophagy. Only a small fraction of cells pretreated with an antimitotic agent might resume proliferation and divide to generate viable daughter cells that form colonies. Assay of the ability of cells to form colonies after being exposed to an anticancer agent for a short period of time represents a more accurate approach to document the potency of antimitotic agents. The human lung cancer cell line NCI-H23 in sub-confluence was exposed to compounds #7, #36, and #39 for three days and then transferred to drug-free fresh medium once every 3 days until 12 days after the initiation of treatment. At the end point, cells were photographed after fixed and stained with crystal violet.

Human Cancer Cells = experiment: Anchorage-independent growth in 3D culture (FIG. 3); assay type: cell-based; conditions: FIG. 3 legend, cell line not named
Description: (§1) Measuring the ability of cells to grow in soft agar has been popularly believed as the gold standard assay for cellular transformation in vitro. In the Soft Agar Assay, cells grow from single cells to cell colonies in a semi-solid agar solution that keeps them away from the solid surface and allows growth in an anchorage-independent way.
(§2) The anchorage-independent growth of cells is one of the hallmarks of cancer cells. Normal epithelial cells are supported by basement membranes that provide survival and proliferative signals while undergo a type of apoptosis called anoikis when lose their attachment to the extracellular matrix. Cancer cells, in contrast, evade detachment-induced apoptosis, leading to uncontrolled proliferation and metastasis. The Soft Agar Colony Formation Assay allows testing of the therapeutic efficacy of compounds against anchorage-independent 3D growth of cancer cells in vin. The assay was performed in 6-well plates with two layers of agar. For the first, 0.75% agar in DMEM medium was melted in a microwave oven and poured to form a bottom layer. Once solidified, 10-100K cells in 1 ml of DMEM containing 0.35% agar was added to form the top layer, which was later covered with 0.5 ml of DMEM. Cell culture medium was changed once every two days until colonies were ready to photograph. We test the antitumor activity of select compounds in soft agar colony formation assays. […] The suppression of growth of these three cancer cell lines in 3D culture is consistent with the potent impact of these compounds on cellular proliferation in 2D culture.

[2] = system: cervical cancer cell line Hela; experiment: Soft agar colony formation assay; assay type: cell-based, human
Description: as §1, §2

NCI-H23 = experiment: MTT assay of cellular proliferation; assay type: cell-based; conditions: Homo sapiens, 50% inhibition of cellular proliferation
Method in brief: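 EC50 values reflect the compound concentration that halved proliferation, judged by mitochondrial reduction of MTT to formazan measured at A570. Drug exposure spanned 1 nM to 30 μM after cells reached 20-30% confluence in DMEM with 5% FBS.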

Calu-6 = experiment: MECP in cancer cell line; assay type: cell-based, human
Experimental: (§3) Six lung cancer cell lines (NCI-H23, NCI-H460, NCI-H596, NCI-H2170, Calu-6 and A549), two colon cancer cell lines (HCT116 and SW460), one breast cancer cell line MDA-MB-231, one gastric cancer cell line NCI-N87, one prostate cancer cell line DU145, one cervical cancer cell line Hela, and one glioblastoma cell line T98G were obtained from ATCC. The T2 HCC cell line was derived from a mouse liver cancer model initiated by a transgene of MYC. All cell lines were cultured in DMEM (Gibco, Cleveland, TN, USA) supplemented with 5% fetal bovine serum (Gibco), penicillin (100 U/mL)—streptomycin (100 μg/mL) (Gibco, Cat. No. 15140-122), 2 mM L-glutamine (Gibco, 200 mM solution, Cat. No. 25030081), and 1 mM sodium pyruvate (Gibco, 100 mM solution, Cat. No. 11360070) at 37° C. in a humidified incubator that was maintained at 5% CO2.
(§4) We have previously developed a mechanism-informed phenotypic screening assay to identify novel antimitotic agents. Equipped with a prior understanding of the versatile functions of the chromosomal passenger protein (CPP) complex in orchestrating karyokinesis and cytokinesis, the screening assay is to score for phenotypes typically seen when the CPP complex is disabled. Specifically, the parameters for a positive hit are a temporary elevation of mitotic index (MI) at 24 hours of drug treatment and an accumulation of polyploid cells at 48 hours of drug treatment, indicative of mitotic arrest and cytokinetic failure respectively. These parameters exclude compounds that elicit only a prolonged arrest of cells in mitosis, a phenotype typically provoked by spindle toxins. The screening procedure is briefly summarized here. RPEMYC^H2B-GFP cells engineered to express a Histone 2B-EGFP fusion protein were passaged as batches of 96-well plates, 18-24 hours before exposure to the chemical compounds of the present disclosure at concentrations from 1 nM to 30 μM. At 24, 48 or 72 hours after initiation of treatment, cells were analyzed for either an arrest in mitosis or a change in DNA content by GE IN-Cell Analyzer 2000. As set forth in Table 2 below, a value of greater than or equal to 1 nM and less than or equal to 1.0 μM is marked “A”; a value greater than 1.00 μM and less than or equal to 10.0 μM is marked “B”; a value greater than 10.0 μM and less than or equal to 30.0 μM is marked “C”; and a value greater than 30.0 μM is marked “D.”

NCI-H2170 = experiment: MECP in cancer cell line; assay type: cell-based, human
Experimental: as §3, §4

DU145 = experiment: MECP in cancer cell line; assay type: cell-based, human
Experimental: as §3, §4

Structure (SMILES)	pEC50 (NCI-H23)	long-term proliferative potential of NCI-H23 cells (colony formation) [1]	Anchorage-independent Growth of Human Cancer Cells in 3D Culture (Human Cancer Cells)	anchorage-independent growth in soft agar [2]	MECP (Calu-6)	MECP (NCI-H2170)	MECP (DU145)
COC(=O)c1cc(OC)cc(Oc2ncnc3cc(OC)c(OC)cc23)c1 [Compound 29]	6.00 to 9.00				A (a value of greater than or equal to 1 nM and less than or equal to 1.0 μM)	A (a value of greater than or equal to 1 nM and less than or equal to 1.0 μM)	B (a value greater than 1.00 M and less than or equal to 10.0 μM)
COC(=O)c1cc(Oc2ncnc3ccsc23)cc(C(=O)OC)c1 [Compound 39, dimethyl 5-(thieno[3,2-d]pyrimidin-4-yloxy)isophthalate]	6.00 to 9.00	Suppress the Long-Term Proliferative Potential; also recorded: inhibited the long-term proliferative potential	Suppress the Anchorage-independent Growth	effectively suppressed the anchorage-independent growth	A (a value of greater than or equal to 1 nM and less than or equal to 1.0 μM)	A (a value of greater than or equal to 1 nM and less than or equal to 1.0 μM)	A (a value of greater than or equal to 1 nM and less than or equal to 1.0 μM)
COc1cc(OC)cc(Oc2ccnc3ccccc23)c1 [Compound 7, 4-(3,5-dimethoxyphenoxy)quinoline]	6.00 to 9.00	Suppress the Long-Term Proliferative Potential; also recorded: inhibited the long-term proliferative potential	Suppress the Anchorage-independent Growth	effectively suppressed the anchorage-independent growth			

Second part, led by results:

pEC50 (NCI-H23)	Structure (SMILES)	long-term proliferative potential of NCI-H23 cells (colony formation) [1]	Anchorage-independent Growth of Human Cancer Cells in 3D Culture (Human Cancer Cells)	anchorage-independent growth in soft agar [2]	MECP (Calu-6)	MECP (NCI-H2170)	MECP (DU145)
6.00 to 9.00	COC(=O)c1cc(Oc2ncnc3cc[nH]c23)cc(C(=O)OC)c1 [Compound 36, dimethyl 5-((5H-pyrrolo[3,2-d]pyrimidin-4-yl)oxy)isophthalate]	Suppress the Long-Term Proliferative Potential; also recorded: inhibited the long-term proliferative potential	Suppress the Anchorage-independent Growth	effectively suppressed the anchorage-independent growth	A (a value of greater than or equal to 1 nM and less than or equal to 1.0 μM)	A (a value of greater than or equal to 1 nM and less than or equal to 1.0 μM)	A (a value of greater than or equal to 1 nM and less than or equal to 1.0 μM)
6.00 to 9.00	COC(=O)c1cc(OC)cc(Oc2ncnc3ccsc23)c1 [Compound 37, methyl 3-methoxy-5-(thieno[3,2-d]pyrimidin-4-yloxy)benzoate]				A (a value of greater than or equal to 1 nM and less than or equal to 1.0 μM)	A (a value of greater than or equal to 1 nM and less than or equal to 1.0 μM)	A (a value of greater than or equal to 1 nM and less than or equal to 1.0 μM)
6.00 to 9.00	COC(=O)c1cc(OC)cc(Oc2ncnc3cc[nH]c23)c1 [Compound 34, methyl 3-((5H-pyrrolo[3,2-d]pyrimidin-4-yl)oxy)-5-methoxybenzoate]				A (a value of greater than or equal to 1 nM and less than or equal to 1.0 μM)	A (a value of greater than or equal to 1 nM and less than or equal to 1.0 μM)	A (a value of greater than or equal to 1 nM and less than or equal to 1.0 μM)
